Test results from patent publication US9962369B2, “Methods and compositions for transdermal delivery” (SPRAYABLE HOLDINGS, INC., priority 2014, dated 2018).

Experiment: Transdermal delivery of melatonin: plasma level of melatonin after applying composition to skin of a subject
Conditions: human, plasma, topical, Plasma level of melatonin; for concentration at 1 h: 1 hr after transdermal administration; for concentration at 2 h: 2 hr after transdermal administration; for concentration at 4 h: 4 hr after transdermal administration; for concentration at 8 h: 8 hr after transdermal administration; for concentration at 0 h: 0 hr after transdermal administration
[1] = 3 mg, salt of tryptophan isopropyl ester, A− = Cl^−, 247.52 mM, 0.30 mL applied
[2] = 3 mg, salt of tryptophan isopropyl ester, A− = F^−, 262.85 mM, 0.30 mL applied
[3] = 3 mg, salt of tryptophan isopropyl ester, A− = I^−, 187.04 mM, 0.30 mL applied
[4] = 3 mg, salt of tryptophan isopropyl ester, A− = Lactate ion, 208.11 mM, 0.30 mL applied
[5] = 0.3 mL of 1% melatonin in water, Tryptophan isopropyl ester hydrochloride 247.52 mM, 0.3 mL applied to skin
[6] = 0.3 mL of 1% melatonin in water, salt of tyrosine isopropyl ester, A− = Benzoate ion, 202.65 mM, 0.30 mL applied
[7] = 0.3 mL of 1% melatonin in water, salt of tyrosine isopropyl ester, A− = Lactate ion, 221.97 mM, 0.30 mL applied
[8] = 2 mL of […] melatonin suspension in water, Table 21 control, A− N/A, helper esters 0 mM, 2.0 mL applied
[9] = 2 mL of […] melatonin suspension, Helper esters: None (0 mM), 2.0 mL applied to skin
[10] = 2-(Dibutylamino)ethyl 2-acetoxybenzoate hydrochloride 188.23 mM, 0.375 mL applied to skin
[11] = 2-(Diethylamino)ethyl 2-acetoxybenzoate hydrochloride 221.69 mM, 0.375 mL applied to skin
[12] = 3-(Diethylamino)propyl 2-acetoxybenzoate hydrochloride 212.24 mM, 0.375 mL applied to skin
[13] = 6-(Dimethylamino)hexyl 2-acetoxybenzoate hydrochloride 203.56 mM, 0.375 mL applied to skin
[14] = Proline hexyl ester hydrochloride 296.94 mM, 0.60 mL applied to skin
[15] = Proline isopropyl ester hydrochloride 361.41 mM, 0.60 mL applied to skin
[16] = Proline methyl ester hydrochloride 422.66 mM, 0.60 mL applied to skin
[17] = salt of tryptophan isopropyl ester, A− = Lactate ion, 208.11 mM, 0.30 mL applied
[18] = salt of tyrosine isopropyl ester, A− = AcO^−, 245.0 mM, 0.30 mL applied
[19] = salt of tyrosine isopropyl ester, A− = Benzoate ion, 202.65 mM, 0.30 mL applied
[20] = salt of tyrosine isopropyl ester, A− = Br^−, 230.16 mM, 0.30 mL applied
[21] = salt of tyrosine isopropyl ester, A− = Citrate ion, 168.49 mM, 0.30 mL applied
[22] = salt of tyrosine isopropyl ester, A− = Cl^−, 269.51 mM, 0.30 mL applied
[23] = salt of tyrosine isopropyl ester, A− = F^−, 287.91 mM, 0.30 mL applied
[24] = salt of tyrosine isopropyl ester, A− = I^−, 199.43 mM, 0.30 mL applied

COc1ccc2[nH]cc(CCNC(C)=O)c2c1 [Melatonin]
concentration at 1 h [1]: 2.5 ng/mL
concentration at 2 h [1]: 2.8 ng/mL
concentration at 4 h [1]: 2.7 ng/mL
concentration at 8 h [1]: 2.5 ng/mL
concentration at 0 h [2]: 0 ng/mL
concentration at 1 h [2]: 2.6 ng/mL
concentration at 2 h [2]: 2.8 ng/mL
concentration at 4 h [2]: 2.9 ng/mL
concentration at 8 h [2]: 2.6 ng/mL
concentration at 0 h [3]: 0 ng/mL
concentration at 1 h [3]: 2.3 ng/mL
concentration at 2 h [3]: 2.3 ng/mL
concentration at 4 h [3]: 2.2 ng/mL
concentration at 8 h [3]: 2.1 ng/mL
concentration at 0 h [4]: 0 ng/mL
concentration at 1 h [4]: 1.9 ng/mL
concentration at 0 h [5]: 0 ng/mL
concentration at 1 h [5]: 2.5 ng/mL
concentration at 2 h [6]: 2 ng/mL
concentration at 4 h [6]: 1.8 ng/mL
concentration at 8 h [6]: 1.7 ng/mL
concentration at 0 h [7]: 0 ng/mL
concentration at 1 h [7]: 1.7 ng/mL
concentration at 2 h [7]: 1.8 ng/mL
concentration at 4 h [7]: 2 ng/mL
concentration at 8 h [7]: 1.6 ng/mL
concentration at 0 h [8]: 0 ng/mL
concentration at 1 h [8]: 0.1 ng/mL
concentration at 2 h [8]: 0.1 ng/mL
concentration at 4 h [8]: 0.1 ng/mL
concentration at 8 h [8]: 0.1 ng/mL
concentration at 4 h [9]: 0.1 ng/mL
concentration at 8 h [9]: 0.1 ng/mL
concentration at 0 h [10]: 0 ng/mL
concentration at 1 h [10]: 1.6 ng/mL
concentration at 2 h [10]: 1.9 ng/mL
concentration at 4 h [10]: 1.8 ng/mL
concentration at 8 h [10]: 1.6 ng/mL
concentration at 0 h [11]: 0 ng/mL
concentration at 1 h [11]: 2.3 ng/mL
concentration at 2 h [11]: 2.6 ng/mL
concentration at 4 h [11]: 2.7 ng/mL
concentration at 8 h [11]: 2.4 ng/mL
concentration at 0 h [12]: 0 ng/mL
concentration at 1 h [12]: 2.1 ng/mL
concentration at 2 h [12]: 2.2 ng/mL
concentration at 4 h [12]: 2.3 ng/mL
concentration at 8 h [12]: 2.1 ng/mL
concentration at 0 h [13]: 0 ng/mL
concentration at 1 h [13]: 1.7 ng/mL
concentration at 2 h [13]: 2.1 ng/mL
concentration at 4 h [13]: 2.1 ng/mL
concentration at 8 h [13]: 1.9 ng/mL
concentration at 0 h [14]: 0 ng/mL
concentration at 1 h [14]: 1.1 ng/mL
concentration at 2 h [14]: 1.2 ng/mL
concentration at 4 h [14]: 1.3 ng/mL
concentration at 8 h [14]: 1.2 ng/mL
concentration at 0 h [15]: 0 ng/mL
concentration at 1 h [15]: 1.4 ng/mL
concentration at 2 h [15]: 1.4 ng/mL
concentration at 4 h [15]: 1.5 ng/mL
concentration at 8 h [15]: 1.4 ng/mL
concentration at 0 h [16]: 0 ng/mL
concentration at 1 h [16]: 1.2 ng/mL
concentration at 2 h [16]: 1.4 ng/mL
concentration at 4 h [16]: 1.3 ng/mL
concentration at 8 h [16]: 1.3 ng/mL
concentration at 2 h [17]: 2 ng/mL
concentration at 4 h [17]: 1.9 ng/mL
concentration at 8 h [17]: 1.8 ng/mL
concentration at 0 h [18]: 0 ng/mL
concentration at 1 h [18]: 1.8 ng/mL
concentration at 2 h [18]: 2 ng/mL
concentration at 4 h [18]: 1.9 ng/mL
concentration at 8 h [18]: 21.8 ng/mL
concentration at 0 h [19]: 0 ng/mL
concentration at 1 h [19]: 1.6 ng/mL
concentration at 0 h [20]: 0 ng/mL
concentration at 1 h [20]: 2.3 ng/mL
concentration at 2 h [20]: 2.7 ng/mL
concentration at 4 h [20]: 2.7 ng/mL
concentration at 8 h [20]: 2.6 ng/mL
concentration at 0 h [21]: 0 ng/mL
concentration at 1 h [21]: 2 ng/mL
concentration at 2 h [21]: 2.3 ng/mL
concentration at 4 h [21]: 2.2 ng/mL
concentration at 8 h [21]: 2 ng/mL
concentration at 0 h [22]: 0 ng/mL
concentration at 1 h [22]: 2.1 ng/mL
concentration at 2 h [22]: 2.9 ng/mL
concentration at 4 h [22]: 2.7 ng/mL
concentration at 8 h [22]: 2.8 ng/mL
concentration at 0 h [23]: 0 ng/mL
concentration at 1 h [23]: 2.2 ng/mL
concentration at 2 h [23]: 2.8 ng/mL
concentration at 4 h [23]: 2.8 ng/mL
concentration at 8 h [23]: 2.5 ng/mL
concentration at 0 h [24]: 0 ng/mL
concentration at 1 h [24]: 2.1 ng/mL
concentration at 2 h [24]: 2.3 ng/mL
concentration at 4 h [24]: 2.3 ng/mL
concentration at 8 h [24]: 2.1 ng/mL
